Laboratory results taken from patent US20100273876A1, “ANTIBACTERIAL FORMULATION COMPRISING A DIALKYL SULPHOSUCCINATE AND A CARBANILIDE ANTIBACTERIAL AGENT” (priority 2007, published 2010).
In brackets after ≈: the same amount, converted by molar mass. Read-outs that look alike come from different tables or passages of the source.

Legend:
[1] = system: Clost. difficile ATCC 7000057; assay: (S)DDA disc diffusion; type: cell-based, Clostridium difficile; conditions: 200 μg per disc
Experimental: (§1) A sterile paper disc was impregnated with a sample of the test compound in a suitable solvent and 30 minutes allowed for the solvents to evaporate (where possible). The disc was then placed on an agar plate onto which the test micro-organism had been inoculated. The plate was then incubated under the conditions described above, following which it was examined visually for signs of microbial growth. If the test compound had antimicrobial activity, a circular zone of no growth would be obtained around the disc. The diameter of this zone of “inhibition” was measured using a ProtoCOL™ automated zone sizer (Synbiosis, Cambridge, UK). In general, a greater diameter and/or area of the zone of inhibition indicates a greater antimicrobial activity in the relevant test compound, although other factors such as test compound mobility through the agar gel may also influence the result.
Two test a compounds A and B were placed on a single paper disc and the above described DDA procedure repeated. […]
The activities of DOSS and TCC were determined, using (S)DDAs, against a panel of further test micro-organisms, namely B. cereus ATCC 11778, Bact. fragilis ATCC 25285, Clost. difficile […] and E. faecalis ATCC 29212. […]

P. acnes NCTC 737 [2] = assay: Minimum inhibitory concentration (MIC) assay, liquid medium; type: cell-based, Propionibacterium acnes
Experimental: (§2) The propionibacteria were cultured and maintained on Wilkins-Chalgren Anaerobe Medium (agar and broth) at pH 6.0; all cultures were incubated anaerobically at 37° C. for 72 hours.
This is a standard international method for quantitatively assessing the antimicrobial activity of a compound in a liquid medium. The method used a sterile 96-well microtitre plate, capable of holding about 200 μl of liquid per well. The wells contained liquid culture medium and ranges of decreasing concentrations of the relevant test compound in doubling dilutions (eg, 1000, 500, 250, 125 . . . μg/ml, etc. down to 0.49 μg/ml). The culture media were as described above.
The wells were inoculated with a liquid suspension of freshly grown micro-organism and incubated under the conditions described above. After incubation, the microtitre plate was examined visually (with the aid of a light box) for cloudiness in each well, which would indicate microbial growth. The MIC value was recorded as the lowest concentration of test compound required to inhibit microbial growth, ie, the lowest concentration for which the liquid in the well remained clear.
The assays included both negative (culture medium with no micro-organisms) and positive (culture medium plus diluting solvent plus micro-organism) controls.

P. acnes NCTC 737 [3] = assay: Disc diffusion / synergy disc diffusion assay ((S)DDA); type: cell-based, Propionibacterium acnes; conditions: for (S)DDA: diluted 1:2 with placebo, 10 μl per disc; for SDDA with DOSS: 200 μg TCC + 50 μg DOSS on one disc
Experimental: as §2, §1
(§3) Two test a compounds A and B were placed on a single paper disc and the above described DDA procedure repeated. An increase in diameter of the zone of inhibition, compared to the greater of the zone diameters for the two compounds individually, was taken to indicate potential antimicrobial synergy. In practical terms, an increase of greater than 5 mm could be treated as significant.
(§4) Both the DDA and the SDDA test may be carried out using an agar gel supplemented with lipid and/or salt to simulate some of the major components present in human skin and to assess whether these substances might reduce the antimicrobial activity observed for the test compound. Performance under these conditions can provide a more reliable indication of activity on topical application. The supplements used in Examples 1, 11, 12 and 13 below were lipid (either Tween™ 80 at 1% v/v (Example 1) or triolein at 1% v/v (Examples 11, 12 and 13) and sodium chloride (100 mM).

P. acnes PRP-003 = assay: (S)DDA disc diffusion; type: cell-based, Propionibacterium acnes
Experimental: as §2, §1, §3, §4

P. acnes PRP-002 = assay: (S)DDA disc diffusion; type: cell-based, Propionibacterium acnes
Experimental: as §2, §1, §3, §4

P. acnes PRP-046 = assay: (S)DDA disc diffusion; type: cell-based, Propionibacterium acnes
Experimental: as §2, §1, §3, §4

P. acnes PRP-007 = assay: (S)DDA disc diffusion; type: cell-based, Propionibacterium acnes
Experimental: as §2, §1, §3, §4

P. acnes PRP-017 = assay: (S)DDA disc diffusion; type: cell-based, Propionibacterium acnes
Experimental: as §2, §1, §3, §4

P. acnes PRP-102 = assay: (S)DDA disc diffusion; type: cell-based, Propionibacterium acnes
Experimental: as §2, §1, §3, §4

[4] = system: Por. gingivalis NCTC 11834; assay: (S)DDA disc diffusion; type: cell-based, Porphyromonas gingivalis; conditions: for DDA: 200 μg per disc
Experimental: The P. gingivalis strains were cultured and maintained on Wilkins-Chalgren Anaerobe Medium (agar and broth) at pH 7.0; all cultures were incubated anaerobically at 37° C. for 5-7 days.
as §1, §3
For the (S)DDA experiments; 200 μg of the DOS salts and/or the TCC were loaded onto each disc for Por. gingivalis experiments. For the Strep. mutans experiments, 200 μg of the TCC and 50 μg of DOSS were used on each disc. All the experiments were conducted in triplicate.

S. aureus ATCC 29213 = assay: (S)DDA disc diffusion; type: cell-based, Staphylococcus aureus; conditions: 200 μg per disc
Experimental: as §1, §3
(§5) The activities of DOSS and TCC against S. aureus ATCC 29213 and EMRSA 15 were determined using (S)DDAs as described above. 200 μg of the DOSS and/or the TCC were loaded onto each disc. All the experiments were conducted in triplicate.

EMRSA 15 = assay: (S)DDA disc diffusion; type: cell-based, Staphylococcus aureus; conditions: 200 μg per disc
Experimental: as §1, §3, §5

[5] = supplemented with salt (sodium chloride 100 mM) & lipid (Tween 80 1% v/v), 50 μg DOSS or 200 μg TCC per disc
[6] = unsupplemented, 50 μg DOSS or 200 μg TCC per disc
[7] = unsupplemented, with respect to the TCC
[8] = P. acnes PRP-003 (Tet), 200 μg TCC or 50 μg DOSS per disc
[9] = P. acnes PRP-002 (Tet/MLS), 200 μg TCC or 50 μg DOSS per disc
[10] = P. acnes PRP-046 (resistance None), 200 μg TCC or 50 μg DOSS per disc
[11] = P. acnes PRP-007 (Clin), 200 μg TCC or 50 μg DOSS per disc
[12] = P. acnes PRP-017 (MLS), 200 μg TCC or 50 μg DOSS per disc
[13] = P. acnes PRP-102 (Tet/MLS), 200 μg TCC or 50 μg DOSS per disc

Compound `O=C(Nc1ccc(Cl)cc1)Nc1ccc(Cl)c(Cl)c1` [TCC, N-(4-chlorophenyl)-N′-(3,4-dichlorophenyl) urea] has a DDA [1] of 0.0 mm, an MIC (P. acnes NCTC 737 [2]; Cutibacterium acnes, NCTC737, read-out: MIC) of 0.12 µg/mL (≈ 0.38 µM) and a DDA (P. acnes NCTC 737 [3]; 200 μg of each test compound per disc (Example 2)) of 15.69 mm. For the same compound, the “(S)DDA” value (P. acnes NCTC 737 [3]; 0.1% w/w TCC solution) was 0.00 mm, the “(S)DDA” value (P. acnes NCTC 737 [3]; 0.2% w/w TCC solution) was 0.00 mm and the “(S)DDA” value (P. acnes NCTC 737 [3]; 0.3% w/w TCC solution) was 30.10 mm. The SDDA area increase (P. acnes NCTC 737 [3]; supplemented with salt & lipid) was “∞”, the SDDA increase (P. acnes NCTC 737 [3]; supplemented with salt & lipid) was 10.57 mm and the “SDDA with DOSS” value (P. acnes NCTC 737 [3]; supplemented with salt & lipid) was 10.57 mm. The DDA (P. acnes NCTC 737 [3]; [5]) was 0.00 mm, the DDA (P. acnes NCTC 737 [3]; [6]) was 18.76 mm and the “SDDA with DOSS” value (P. acnes NCTC 737 [3]; unsupplemented) was 29.95 mm. The SDDA area increase (P. acnes NCTC 737 [3]; [7]) was 154.9%, the SDDA increase (P. acnes NCTC 737 [3]; [7]) was 11.19 mm and the DDA (P. acnes PRP-003; [8]) was 23.64 mm. The DDA (P. acnes PRP-002; [9]) was 34.22 mm, the DDA (P. acnes PRP-046; [10]) was 20.25 mm and the DDA (P. acnes PRP-007; [11]) was 13.87 mm. For the same compound, the DDA (P. acnes PRP-017; [12]) was 18.81 mm, the DDA (P. acnes PRP-102; [13]) was 14.59 mm and the DDA [4] was 23.73 mm. The DDA (S. aureus ATCC 29213) was 12.84 mm and the DDA (EMRSA 15) was 12.42 mm.
For dioctyl sodium sulphosuccinate [DOSS], the DDA [1] was 0.0 mm, the MIC (P. acnes NCTC 737 [2]) was 15.6 µg/mL and the DDA (P. acnes NCTC 737 [3]; 200 μg per disc, pH 6.0, single replicates) was 47.63 mm. For the same compound, the “DDA + salt” value (P. acnes NCTC 737 [3]; 200 μg per disc, pH 6.0, sodium chloride 100 mM) was 45.14 mm, the “DDA + lipid” value (P. acnes NCTC 737 [3]; 200 μg per disc, pH 6.0, triolein 1% v/v) was 47.32 mm and the “(S)DDA” value (P. acnes NCTC 737 [3]; 2.5% w/w DOSS solution (Solutol HS 15/ethanol/water)) was 0.00 mm. For the same compound, the “(S)DDA” value (P. acnes NCTC 737 [3]; 5% w/w DOSS solution) was 31.88 mm, the “(S)DDA” value (P. acnes NCTC 737 [3]; 7.5% w/w DOSS solution) was 40.52 mm and the DDA (P. acnes NCTC 737 [3]; [5]) was 0.00 mm. It also gave a DDA (P. acnes NCTC 737 [3]; [6]) of 11.81 mm, a DDA (P. acnes PRP-003; [8]) of 27.95 mm and a DDA (P. acnes PRP-003; P. acnes PRP-003, 200 μg per disc) of 42.96 mm. The “DDA + salt” value (P. acnes PRP-003; P. acnes PRP-003, 200 μg per disc, sodium chloride 100 mM) was 46.69 mm, the “DDA + lipid” value (P. acnes PRP-003; P. acnes PRP-003, 200 μg per disc, triolein 1% v/v) was 43.58 mm and the DDA (P. acnes PRP-002; [9]) was 31.76 mm. For the same compound, the DDA (P. acnes PRP-002; P. acnes PRP-002, 200 μg per disc) was 49.49 mm, the “DDA + salt” value (P. acnes PRP-002; P. acnes PRP-002, 200 μg per disc, sodium chloride 100 mM) was 51.36 mm and the “DDA + lipid” value (P. acnes PRP-002; P. acnes PRP-002, 200 μg per disc, triolein 1% v/v) was 48.25 mm. The DDA (P. acnes PRP-046; [10]) was 25.08 mm, the DDA (P. acnes PRP-046; P. acnes PRP-046, 200 μg per disc) was 44.51 mm and the “DDA + salt” value (P. acnes PRP-046; P. acnes PRP-046, 200 μg per disc, sodium chloride 100 mM) was 47.00 mm. The “DDA + lipid” value (P. acnes PRP-046; P. acnes PRP-046, 200 μg per disc, triolein 1% v/v) was 41.09 mm, the DDA (P. acnes PRP-007; [11]) was 21.38 mm and the DDA (P. acnes PRP-007; P. acnes PRP-007, 200 μg per disc) was 47.32 mm. The “DDA + salt” value (P. acnes PRP-007; P. acnes PRP-007, 200 μg per disc, sodium chloride 100 mM) was 42.96 mm, the “DDA + lipid” value (P. acnes PRP-007; P. acnes PRP-007, 200 μg per disc, triolein 1% v/v) was 44.82 mm and the DDA (P. acnes PRP-017; [12]) was 28.98 mm. For the same compound, the DDA (P. acnes PRP-017; P. acnes PRP-017, 200 μg per disc) was 47.94 mm, the “DDA + salt” value (P. acnes PRP-017; P. acnes PRP-017, 200 μg per disc, sodium chloride 100 mM) was 47.63 mm and the “DDA + lipid” value (P. acnes PRP-017; P. acnes PRP-017, 200 μg per disc, triolein 1% v/v) was 44.82 mm. The DDA (P. acnes PRP-102; [13]) was 22.81 mm, the DDA (P. acnes PRP-102; P. acnes PRP-102, 200 μg per disc) was 44.82 mm and the “DDA + salt” value (P. acnes PRP-102; P. acnes PRP-102, 200 μg per disc, sodium chloride 100 mM) was 41.71 mm. For the same compound, the “DDA + lipid” value (P. acnes PRP-102; P. acnes PRP-102, 200 μg per disc, triolein 1% v/v) was 37.98 mm, the SDDA area increase [4] was 54.34% and the SDDA increase [4] was 12.39 mm. The “SDDA with TCC” value ([4]; 200 μg DOS salt + 200 μg TCC on one disc) was 63.52 mm, the DDA [4] was 51.13 mm and the DDA (S. aureus ATCC 29213) was 12.22 mm. It also gave a DDA (EMRSA 15) of 12.42 mm.
